The source of these data is patent US11254651B2, “Histone methyltransferase inhibitors” (GLOBAL BLOOD THERAPEUTICS, INC., priority 2016, dated 2022).

Counter-ions that a name gives are not always drawn.

The target of the assay is T1, G9a (Homo sapiens, UniProt Q96KQ7).
T1 sequence (Q96KQ7 1-1210): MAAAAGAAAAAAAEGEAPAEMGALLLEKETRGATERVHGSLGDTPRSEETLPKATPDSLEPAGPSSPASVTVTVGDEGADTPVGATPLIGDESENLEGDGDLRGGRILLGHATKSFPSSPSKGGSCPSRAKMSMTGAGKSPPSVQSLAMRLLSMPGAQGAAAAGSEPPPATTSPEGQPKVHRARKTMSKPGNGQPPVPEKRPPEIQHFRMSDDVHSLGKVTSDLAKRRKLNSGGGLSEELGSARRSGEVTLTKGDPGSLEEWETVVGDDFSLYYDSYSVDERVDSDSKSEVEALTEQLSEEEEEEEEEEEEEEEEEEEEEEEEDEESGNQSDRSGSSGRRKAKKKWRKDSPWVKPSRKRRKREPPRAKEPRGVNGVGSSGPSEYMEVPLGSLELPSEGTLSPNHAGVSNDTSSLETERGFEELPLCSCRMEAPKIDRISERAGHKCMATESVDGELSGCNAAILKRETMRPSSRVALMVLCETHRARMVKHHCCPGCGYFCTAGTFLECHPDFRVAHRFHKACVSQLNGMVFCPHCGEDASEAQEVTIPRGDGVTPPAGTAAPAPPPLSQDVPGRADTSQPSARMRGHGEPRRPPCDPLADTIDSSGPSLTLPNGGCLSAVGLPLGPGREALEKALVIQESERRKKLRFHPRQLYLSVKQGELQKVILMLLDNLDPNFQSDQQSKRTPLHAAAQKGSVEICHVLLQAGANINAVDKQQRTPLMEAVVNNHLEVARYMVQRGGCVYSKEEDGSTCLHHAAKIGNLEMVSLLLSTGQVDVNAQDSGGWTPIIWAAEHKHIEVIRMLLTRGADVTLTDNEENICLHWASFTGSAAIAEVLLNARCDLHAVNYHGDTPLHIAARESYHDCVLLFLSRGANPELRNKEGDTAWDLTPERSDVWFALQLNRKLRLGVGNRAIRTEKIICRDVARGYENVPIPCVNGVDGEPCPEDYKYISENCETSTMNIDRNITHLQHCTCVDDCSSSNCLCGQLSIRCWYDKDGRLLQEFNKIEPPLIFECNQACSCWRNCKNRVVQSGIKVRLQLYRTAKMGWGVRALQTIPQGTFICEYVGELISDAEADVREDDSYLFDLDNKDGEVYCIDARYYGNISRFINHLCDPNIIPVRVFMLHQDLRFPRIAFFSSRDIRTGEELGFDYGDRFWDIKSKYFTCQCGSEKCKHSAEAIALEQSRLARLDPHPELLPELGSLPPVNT
Put plainly: G9a AlphaLISA enzymatic activity assay. The class given is biochemical. The following applies: 0.15 nM G9a, 15 uM S-adenosyl-methionine, 100 nM biotinylated histone 3 peptide (1-21), 1 hour room temperature. An excerpt:
The G9a AlphaLISA assay was used to detect the methyl modifications of a biotinylated histone H3 peptide by the compounds. These modifications are done by the histone methyl transferase activity of the G9a enzyme. The assay consists of reading a chemiluminescent signal at 615 nm; this signal is generated by a laser excitation at 680 nm that transfers a reactive singlet oxygen between the donor beads and acceptor beads. Donor beads are streptavidin conjugated and bind to the biotin on the peptide. Acceptor beads are conjugated with an antibody that recognizes the specific G9a methyl mark on the peptide. If there is a methyl mark on the peptide, the acceptor beads will bind to the peptide. Upon binding, the acceptor beads will be in close proximity (<200 nm) of the donor beads and when the donor beads are excited, the transfer of the oxygen can occur and a strong signal will be generated. If there is no methyl mark, the interaction between beads will not occur and signal will be at background levels.
For the assay, the following buffer was used to set up reactions: 50 mM Tris-HCl pH9, 50 mM NaCl, 0.01% Tween-20 and 1 mM DTT (added fresh prior to starting the reactions). The assay is set up by adding a final concentration of 0.15 nM G9a, 15 uM S-adenosyl-methionine and, 100 nM biotinylated histone 3 peptide (1-21). The reaction is incubated at room temperature for 1 hour, and subsequently quenched by the addition of the acceptor beads (anti-H3k9me2 AlphaLISA acceptor beads, PerkinElmer #AL117) at a final concentration of 20 ug/mL. The acceptor beads are incubated for 1 hour. After 1 hour, the donor beads are added at a final concentration of 20 ug/mL (Alpha Streptavidin donor beads, PerkinElmer #6760002). Donor beads are incubated for 0.5 hours. Both donor and acceptor beads are resuspended in AlphaLISA 5X Epigenetics Buffer 1 Kit (PerkinElmer #AL008) prior to addition to the reaction. All manipulations and incubations with the donor and acceptor beads are done in subdued light. Signal is detected in an EnVision plate reader in Alpha mode (see ACS Med Chem Lett. 2014 Jan. 2; 5(2):205-9. doi: 10.1021/m1400496h. eCollection 2014. Discovery and development of potent and selective inhibitors of histone methyltransferase g9a.)
Percent inhibition was calculated for each compound dilution and the concentration that produced 50% inhibition was calculated. This value is presented as the IC50.
In general terms: Bead proximity is the source of the signal in Alpha formats.

In general, IC50 refers to the concentration that gives 50% inhibition. Low values mean inhibition by little substance, high ones a need for much substance. `COc1cc2c(NCCO)c3c(nc2cc1OCCCN1CCCC1)CCC3` [Entry 34, 2-({7-methoxy-6-[3-(pyrrolidin-1-yl)propoxy]-1H,2H,3H-cyclopenta[b]quinolin-9-yl}amino)ethan-1-ol formate] yielded an IC50 of 7.6 nM.

The compound `COCCNc1c2c(nc3cc(OCCCN4CCCC4)c(OC)cc13)CCC2` [Entry 38, 7-methoxy-N-(2-methoxyethyl)-6-[3-(pyrrolidin-1-yl)propoxy]-1H,2H,3H-cyclopenta[b]quinolin-9-amine formate] registered an IC50 of 16 nM.

The compound `COc1cc2c(NCC3COC3)c3c(nc2cc1OCCCN1CCCC1)CCC3` [Entry 39, 7-methoxy-N-[(oxetan-3-yl)methyl]-6-[3-(pyrrolidin-1-yl)propoxy]-1H,2H,3H-cyclopenta[b]quinolin-9-amine formate] showed a 50% inhibitory concentration (IC50) of 20 nM.

With `COc1cc2c(Nc3ccccn3)c3c(nc2cc1OCCCN1CCCC1)CCC3` [Entry 40, N-{7-methoxy-6-[3-(pyrrolidin-1-yl)propoxy]-1H,2H,3H-cyclopenta[b]quinolin-9-yl}pyridin-2-amine formate], the IC50 came out at 150 nM.

Compound `COc1cc2c(NCC3(C)CC3)c3c(nc2cc1OCCCN1CCCC1)CCC3` [Entry 44, 7-methoxy-N-[(1-methylcyclopropyl)methyl]-6-[3-(pyrrolidin-1-yl)propoxy]-1H,2H,3H-cyclopenta[b]quinolin-9-amine formate] yielded a half-maximal inhibitory concentration (IC50) of 19 nM.

In the case of `COc1cc2c(NCc3ccccc3)c3c(nc2cc1OCCCN1CCCC1)CCC3` [Entry 46, N-benzyl-7-methoxy-6-[3-(pyrrolidin-1-yl)propoxy]-1H,2H,3H-cyclopenta[b]quinolin-9-amine formate], half-maximal inhibition (IC50) was put at 36 nM.

As to `COc1cc2c(NCC(F)(F)F)c3c(nc2cc1OCCCN1CCCC1)CCC3` [Entry 50, 7-methoxy-6-[3-(pyrrolidin-1-yl)propoxy]-N-(2,2,2-trifluoroethyl)-1H,2H,3H-cyclopenta[b]quinolin-9-amine trifluoroacetate], the IC50 stood at 26 nM.

Regarding `COc1cc2c(NCC3CC3)c3c(nc2cc1OCC1CCN(C)C1)CCC3` (centres unmarked) [Entry 52, N-(cyclopropylmethyl)-7-methoxy-6-[(1-methylpyrrolidin-3-yl)methoxy]-1H,2H,3H-cyclopenta[b]quinolin-9-amine formate], 65 nM corresponded to half-maximal inhibition (IC50).

`COc1cc2c(NC3CC(C)OC(C)C3)c3c(nc2cc1OCCCN1CCCC1)CCC3` (centres unmarked) [Entry 53, N-(2,6-dimethyloxan-4-yl)-7-methoxy-6-[3-(pyrrolidin-1-yl)propoxy]-1H,2H,3H-cyclopenta[b]quinolin-9-amine formate] showed an IC50 of 21.6 nM.

The compound `COc1cc2c(NCc3ccccn3)c3c(nc2cc1OCCCN1CCCC1)CCC3` [Entry 54, 7-methoxy-N-[pyridin-2-yl)methyl]-6-[3-(pyrrolidin-1-yl)propoxy]-1H,2H,3H-cyclopenta[b]quinolin-9-amine formate] returned a concentration for half-maximal inhibition (IC50) of 60.1 nM.

For `COc1cc2c(NC3CC(OC)C3)c3c(nc2cc1OCCCN1CCCC1)CCC3` (centres unmarked) [Entry 56, 7-methoxy-N-(3-methoxycyclobutyl)-6-[3-(pyrrolidin-1-yl)propoxy]-1H,2H,3H-cyclopenta[b]quinolin-9-amine formate], inhibition was half-maximal at 16 nM (IC50).

In turn, `COc1cc2c(N[C@H]3C[C@@H](O)C3)c3c(nc2cc1OCCCN1CCCC1)CCC3` [Entry 57, (1s,3s)-3-({7-methoxy-6-[3-(pyrrolidin-1-yl)propoxy]-1H,2H,3H-cyclopenta[b]quinolin-9-yl}amino)cyclobutan-1-ol formate] displayed an IC50 of 33.1 nM.

As to `COc1cc2c(NC3CCC(=O)N(C)C3)c3c(nc2cc1OCCCN1CCCC1)CCC3` (centres unmarked) [Entry 58, 5-({7-methoxy-6-[3-(pyrrolidin-1-yl)propoxy]-1H,2H,3H-cyclopenta[b]quinolin-9-yl}amino)-1-methylpiperidin-2-one trifluoroacetate], the half-inhibitory concentration (IC50) amounted to 46.4 nM.

With `COc1cc2c(NC3CNC(=O)C3)c3c(nc2cc1OCCCN1CCCC1)CCC3` (centres unmarked) [Entry 60, 4-({7-methoxy-6-[3-(pyrrolidin-1-yl)propoxy]-1H,2H,3H-cyclopenta[b]quinolin-9-yl}amino)pyrrolidin-2-one trifluoroacetate], the IC50 is 14.6 nM. This IC50 lies about 3.2-fold lower than the previous one.

With `COc1cc2c(NC(C3CC3)C3CC3)c3c(nc2cc1OCCCN1CCCC1)CCC3` [Entry 65, N-(dicyclopropylmethyl)-7-methoxy-6-[3-(pyrrolidin-1-yl)propoxy]-1H,2H,3H-cyclopenta[b]quinolin-9-amine formate], 7.7 nM corresponded to half-maximal inhibition (IC50). This IC50 lies about 1.9-fold lower than the previous one.

Consider `COc1cc2c(Nc3ccn(C)n3)c3c(nc2cc1OCCCN1CCCC1)CCC3` [Entry 70, N-{7-methoxy-6-[3-(pyrrolidin-1-yl)propoxy]-1H,2H,3H-cyclopenta[b]quinolin-9-yl}-1-methyl-1H-pyrazol-3-amine formate], for which it took 35.8 nM to reach half-maximal inhibition (IC50). Against the preceding compound, the IC50 is about 4.6-fold higher.

`COC(=O)N1CC(CNc2c3c(nc4cc(OCCCN5CCCC5)c(OC)cc24)CCC3)C1` [Entry 71, methyl 3-[({7-methoxy-6-[3-(pyrrolidin-1-yl)propoxy]-1H,2H,3H-cyclopenta[b]quinolin-9-yl}amino)methyl]azetidine-1-carboxylate formate] came in with an IC50 of 17 nM. Against the preceding compound, the IC50 is about 2.1-fold lower.

In the case of `COCCCNc1c2c(nc3cc(OCCCN4CCCC4)c(OC)cc13)CCC2` [Entry 73, 7-methoxy-N-(3-methoxypropyl)-6-[3-(pyrrolidin-1-yl)propoxy]-1H,2H,3H-cyclopenta[b]quinolin-9-amine formate], half-maximal inhibition (IC50) was put at 11.2 nM.

Compound `COc1cc2c(NC3CC4CCC(C3)O4)c3ccccc3nc2cc1OCCCN1CCCC1` (centres unmarked) [Entry 80, 2-methoxy-N-{8-oxabicyclo[3.2.1]octan-3-yl}-3-[3-(pyrrolidin-1-yl)propoxy]acridin-9-amine formate] showed an IC50 of 65.3 nM.

The compound `COc1cc2c(NC3CC(=O)N(C4CCC4)C3)c3ccccc3nc2cc1OCCCN1CCCC1` (centres unmarked) [Entry 87, 1-cyclobutyl-4-({2-methoxy-3-[3-(pyrrolidin-1-yl)propoxy]acridin-9-yl}amino)pyrrolidin-2-one trifluoroacetate] returned an IC50 of 18.5 nM.

With `COc1cc2c(NCCC#N)c3ccccc3nc2cc1OCCCN1CCCC1` [Entry 98, 3-({2-methoxy-3-[3-(pyrrolidin-1-yl)propoxy]acridin-9-yl}amino)propanenitrile trifluoroacetate], it took 6.8 nM to reach half-maximal inhibition (IC50).

In turn, `COc1cc2c(NC3CCC(C)(O)CC3)c3ccccc3nc2cc1OCCCN1CCCC1` [Entry 99, (1R,4R)-4-({2-methoxy-3-[3-(pyrrolidin-1-yl)propoxy]acridin-9-yl}amino)-1-methylcyclohexan-1-ol trifluoroacetate] came in with a concentration for half-maximal inhibition (IC50) of 17 nM. This IC50 lies about 2.5-fold higher than the previous one.

`COc1cc2c(NCC(=O)O)c3ccccc3nc2cc1OCCCN1CCCC1` [Entry 104, 2-({2-methoxy-3-[3-(pyrrolidin-1-yl)propoxy]acridin-9-yl}amino)acetic acid formate] registered an IC50 of 134 nM.
